Experimental data as given in patent publication US11932850B2, “Cancer chemoprevention with STAT3 blockers” (Jill M. Siegfried, LLC, priority 2018, dated 2024).

What was measured:
H3225 cells = test: MTS cell viability assay, H3225; assay type: cell-based, human
[1] = tested on: NSCLC cells (H1975 and 201T); test: Annexin V/propidium iodide apoptosis by flow cytometry; assay type: cell-based, human
Protocol: Statistical significance was determined as *P<0.05, n=3.
Dose-response experiments assessing the relative number of metabolically active viable cells were performed by transfecting cells with increasing concentrations of CS3D or CS3M, followed by performance of MTS assays. After 72 hours, 5 mg/ml of MTS reagent was added in the plates and incubated 37° C. for 20 minutes. The plates were then read at 490 nm in a Synergy microplate reader (BioTek, Winooski, Vermont) using Gen5 2.05 software. Data obtained following treatment with C3SD or CS3M were normalized to treatment with lipofectamine alone. […] After twenty four hours of transfection, cells were resuspended in annexin V-binding buffer, incubated with 5 μL of propidium iodide (BD Biosciences) and subjected to flow cytometric analysis, using a BD FACS Canto II Flow Cytometer.

201T xenografts = test: 201T NSCLC xenograft tumor growth; assay type: in vivo, nude mice
Protocol: (§1) Based on the in vitro effects of CS3D, antitumor effects were evaluated in mice harboring established NSCLC xenografts (10 tumors/group). When tumors reached 200 mm3, mice were given daily intravenous injections (tail vein) of CS3D or CS3M (5 mg/kg/d), 5 days per week, and tumor growth was monitored for 14-20 days. CS3D caused a significant and robust tumor growth inhibition in 201T- and H1975-derived xenografts compared to treatment with CS3M.
(§2) FIGS. 7A and 7B show CS3D suppresses NSCLC xenograft tumor growth. Intravenous delivery of CS3D inhibits tumor growth in both wild-type (FIG. 7A, 201T) and mutant EGFR T790M (FIG. 7B, H1975) xenografts. Approximately 1×10^6 cells were inoculated subcutaneously in the flanks of nude mice. Following the development of palpable tumors (about […]), mice were randomized and given daily injections of either CS3D or CS3M (5 mg/kg/day; 10 tumors/group). Experiments were done twice as biological replicates. Tumor volumes were recorded every other day while animal weights were also monitored during the course of the treatment. […]
(§3) All studies were approved by the University of Minnesota Institutional Animal Care and Use Committee and were carried out in accordance with institutional guidelines for animal care. […] Volumes were calculated from the formula V=(Length×Width^2)/2. […]

H1975 xenografts = test: H1975 NSCLC xenograft tumor growth; assay type: in vivo, nude mice; details: 5 mg/kg/d iv, 5 days per week, compared to CS3M
Protocol: as §1, §2, §3

[2] = tested on: Ki-67, p-STAT3, NF-κB in H1975 xenografts; test: IHC of H1975 xenografts after 5 daily iv injections; assay type: in vivo, nude mice
Protocol: Because tumors treated for several weeks with the STAT3 decoy were largely composed of debris (as illustrated in FIG. 11), xenografts were examined after only 5 daily tail vein injections to determine what cellular changes were induced prior to collapse of the intracellular tumor structure. […] Tumors derived from H1975 xenografs were analyzed by immunohistochemical staining for p-STAT3 after 5 daily iv injections of either STAT3 decoy or mutant decoy. […] This effect is quantified in FIG. 9B.
Images were captured at 40× magnification. A shift from 41% of cells was observed and scored as high-grade staining with CS3M treatment to 13% with high-grade staining in the presence of CS3D, with corresponding increases in moderate- and low-grade staining in the STAT3 decoy treated group (FIG. 12B). […] Bright field images were captured at 40× magnification. Frequency of high-grade staining for p-STAT3 differed between CS3D and CS3M treatment groups (23% in CS3D-treated and 51% in CS3M treated, with corresponding increase in low-grade staining in presence of the active decoy (FIG. 9B). Significant degradation of p-STAT3 protein was detected by IHC in tumors was observed after treatment with CS3D. Percent of high staining fields was reduced from 48% to 22% while percent of fields with low staining increased, P<0.001 (FIG. 9B).
Immunohistochemical analysis: Tumors were excised for immunohistochemical (IHC) staining; 5-μm (micron) sections were cut from formalin-fixed paraffin-embedded tissue blocks, deparaffinized and rehydrated using successive washes of xylene followed by ethanol. Antigen retrieval was performed in a microwave oven (for 20 minutes) in an unmasking solution containing sodium citrate buffer followed by peroxidase blocking in 3% hydrogen peroxide. The sections were incubated in ABC blocking buffer (Vector laboratories Inc, Burlingame, California) for 1 hour at room temperature. Sections were then stained with H&E (hematoxylin and eosin) or subjected to sequential incubations with different primary antibodies and peroxidase-conjugated goat anti-rabbit secondary antibodies. The following primary antibodies were used (at the indicated dilutions): cleaved caspase-3 (#9664, Cell Signaling, 1:300), p-STAT3 (#9145, Cell Signaling, 1:400), Ki67 (#ab15580, Abcam, 1:1000). Sections were developed with DAB and counterstained with hematoxylin. Bright field microscopy was performed using Leica DM 4000 B LED microscope and images were captured at 20× and 40× magnification using LASv4.7 software. IHC analysis was done as a blinded study with 100 images from each treatment group graded as low, moderate, or high. Staining was graded as low (<30% positive cells per field, scored as 1), moderate (30-60% positive cells per field, scored as 2) or high (>60% positive cells per field, scored as 3).

[3] = tested on: K-RAS G12D mutation in tumors; details: tumors 20 weeks post treatment, P>0.1
[4] = tested on: p-STAT3, p-NFkB, VEGF, CD31, IL-6, COX2 in lungs
[5] = 8 weeks post-treatment, vs CS3M

**Q.** Which IC50 (H3225 cells) does the source give for “CS3D (DNA GATTTACGGGAAATGCSCATTTCCC; cyclic decoy with two hexaethylene glycol linkers, further chemistry not given here)” here?
**A.** 0.3 µM

**Q.** What about the “increase in number of cells undergoing apoptosis” value ([1]; 100 nM, 24 h, compared to CS3M) of the same substance?
**A.** 2 fold

**Q.** And the “increase in the percent of apoptotic cells” value ([1]; 201T and H1975, relative to CS3M)?
**A.** 2 fold

**Q.** What about the “increase in number of apoptotic cells” value ([1]; one transfection, all 4 cell lines) of the same substance?
**A.** 2 fold

**Q.** And the “reduction in tumor growth (tumor volume)” value (201T xenografts; 201T xenograft, 5 mg/kg/d iv, 5 days per week, compared to CS3M)?
**A.** 96.5%

**Q.** And the “tumor growth inhibition at 14 days” value (201T xenografts; both KRAS WT cell lines (201T and H1975), as reported (Njatcha et al 2017))?
**A.** over 85%

**Q.** And the “reduction in tumor growth (tumor volume)” value (H1975 xenografts)?
**A.** 81.7%

**Q.** And the Ki-67 high-grade staining ([2]; H1975 xenografts, 5 daily injections)?
**A.** 13%

**Q.** And the “frequency of high-grade staining for p-STAT3” value ([2]; H1975 xenografts, 5 daily iv injections)?
**A.** 23%

**Q.** What about the “percent of high staining fields for p-STAT3” value ([2]; H1975 xenografts, second statement in b134 (FIG. 9B)) of the same substance?
**A.** 22%

**Q.** And the “induction of apoptosis at early time point” value ([2]; after 5 daily injections (not shown))?
**A.** no induction of apoptosis

**Q.** What about the NF-κB nuclear protein ([2]; after five days of treatment) of the same substance?
**A.** No change

**Q.** What about the “proportion of tumors positive for K-RAS mutation, CS3D vs CS3M” value [3] of the same substance?
**A.** no significant difference

**Q.** What about the “IL-6 levels in the airways” value ([4]; 8 weeks after completion of therapy, vs CS3M) of the same substance?
**A.** upregulated

**Q.** And the COX-2 expression ([4]; 8 weeks after end of treatment, vs CS3M)?
**A.** increase

**Q.** What about the “VEGF staining in the airways” value [4, 5] of the same substance?
**A.** decrease

**Q.** What about the “activated phospho-STAT3 protein” value [4, 5] of the same substance?
**A.** long-term reduction

**Q.** What about the phospho-NF-kB activation [4, 5] of the same substance?
**A.** decrease

**Q.** And the “endothelial marker CD31 expression” value ([4]; premalignant stage, data not shown)?
**A.** suppresses
